Each block holds one compound with its values, some of them ahead of it.
Columns and labels:
OBP13 [1] = assay: competitive fluorescence binding assay; set-up: species or system Locusta migratoria
Clvs2 = assay: microscale thermophoresis; assay type: binding, Locusta migratoria
OBP13 [2] = assay: fluorescence titration, Scatchard analysis; assay type: binding, Locusta migratoria

Ki (OBP13 [1]): 3.46 µM
Compound: C=Cc1ccc(OC)cc1 [4VA, 4-vinylanisole]

Kd (Clvs2): 5.86 ± 0.59 µM
Compound: phosphatidylinositol 4,5-bisphosphate [PI(4,5)P2]

Kd (OBP13 [2]): 13.8 µM
Compound: c1ccc(Nc2cccc3ccccc23)cc1 [1-NPN, N-phenyl-1-naphthylamine]

From article PMC12422182 (Science Advances, 2025)
